Results published in patent publication US11884750B2, “Cationic cell penetrating peptides and the use thereof” (CELLTROY CO., LTD., priority 2021, dated 2024).

Tests used:
[1] = tested on: HepG2 cell line; assay: Cell penetration efficiency using liver cells; assay type: cell-based; conditions: 4 μM FITC-conjugated CPP, one hour
Method: (§1) Subsequently, to confirm whether the CPPs according to the present invention show excellent cell permeability into different types of cells/tissues, various tissue-derived cells were treated with biologically active molecule-conjugated CPPs to compare its delivery capacity with TAT. As in the previous examples, each cell was aliquoted in a plate at an appropriate density, and cultured in a 10% FBS-added medium under a condition of 37° C. and 5% CO2 for 24 hours. Subsequently, the cells were treated with 4 μM each of FITC-conjugated CPP or FITC-conjugated TAT and incubated for one hour. After the completion of the incubation, the cells were transferred to a sterile tube using 0.25% trypsin and centrifuged to remove the medium. Afterward, the cells were washed with 500 μL of D-PBS twice to completely remove the medium, and finally, resuspended in 400 μL of D-PBS and intracellular fluorescence was measured by flow cytometry (FACSCanto II).

[2] = tested on: macrophages; assay: Cell penetration efficiency using macrophages; assay type: cell-based; conditions: macrophages differentiated from THP1 cells, 4 μM FITC-conjugated CPP, one hour
Method: as §1, with “II). Macrophages were used by inducing differentiation from THP1 cells. Specifically, the THP-1 cells were aliquoted on a cover glass laid on a 24-well plate to have a density of 6×10^4 cells/well, and after the addition of 100 ng/mL of phorbol 12-myristate 13-acetate (PMA), the cells were incubated for 48 hours to induce the differentiation into macrophages. After 48 hours, the cells were washed with Dulbecco's phosphate buffered saline (DPBS) to perform an experiment.” for “II).”

[3] = tested on: HDF cell line; assay: Cell penetration efficiency in skin cells (HDF); assay type: cell-based; conditions: 4 μM FITC-conjugated CPP, one hour
Summary of the method: (§2)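 Uptake is compared with TAT: each cell type receives 4 μM of FITC-labelled peptide for one hour, having first been cultured for 24 h in medium containing 10% FBS at 37 °C and 5% CO2. Fluorescence inside washed, trypsin-harvested cells is then quantified by flow cytometry.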

[4] = tested on: SH-SY5Y cells; assay: Cell penetration efficiency in human neuroblastoma cells, 4 μM, flow cytometry; assay type: cell-based; conditions: one hour; for cell permeability compared with TAT: 4 μM FITC-conjugated CPP, flow cytometry; for Score / Score/TAT: 4 μM FITC-conjugated peptide; for Score: intracellular fluorescence by flow cytometry; for Score/TAT: ratio to FITC-conjugated TAT
Summary of the method: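 SH-SY5Y cells cultured 24 h in DMEM/10% FBS at 37 °C, 5% CO2, then exposed to 4 μM FITC-conjugated peptide (FITC-TAT as reference) for 1 h. After trypsinisation and D-PBS washes, intracellular fluorescence measured by flow cytometry.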

[5] = tested on: HGB cell line; assay: Cell penetration efficiency in glioblastoma cells; assay type: cell-based, human; conditions: 4 μM FITC-conjugated CPP, one hour
Summary of the method: as §2

[6] = tested on: monocytes; assay: Cell penetration efficiency using monocytes; assay type: cell-based; conditions: 4 μM FITC-conjugated CPP, one hour
Summary of the method: as §2

[7] = tested on: HeLa cell line; assay: Cell penetration efficiency using cervical cancer cells; assay type: cell-based; conditions: 4 μM FITC-conjugated CPP, one hour
Summary of the method: as §2

[8] = tested on: SNU-46 cell line; assay: Cell penetration efficiency using laryngeal cells; assay type: cell-based; conditions: SNU-46 laryngeal cells, 4 μM FITC-conjugated CPP, one hour
Summary of the method: as §2

[9] = tested on: HaCAT cells; assay: Cell penetration efficiency in human epidermal (skin) cells, 4 μM, flow cytometry; assay type: cell-based; conditions: 4 μM FITC-conjugated CPP, one hour
Summary of the method: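 HaCAT cells […] were grown 24 h in DMEM with 10% FBS at 37 °C, then treated 1 h with 4 μM FITC-conjugated peptide or FITC-TAT. Cells were trypsinised and washed in D-PBS. Intracellular fluorescence was read by flow cytometry.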

[10] = tested on: HT1080 cell line; assay: Cell penetration efficiency using connective tissue (fibrosarcoma) cells; assay type: cell-based; conditions: 4 μM FITC-conjugated CPP, one hour
Summary of the method: as §2

[11] = tested on: A-427 cell line; assay: Cell penetration efficiency using lung cells; assay type: cell-based; conditions: A-427 lung cells, 4 μM FITC-conjugated CPP, one hour
Summary of the method: as §2

[12] = tested on: HEK293T cell line; assay: Cell penetration efficiency using kidney cells; assay type: cell-based; conditions: 4 μM FITC-conjugated CPP, one hour
Summary of the method: as §2

Sequence	cell permeability compared with TAT [1]	cell permeability compared with TAT [2]	cell permeability compared with TAT [3]	cell permeability compared with TAT [4]	Score [4]	Score/TAT [4]	cell permeability compared with TAT [5]	cell permeability compared with TAT [6]	cell permeability compared with TAT [7]	cell permeability compared with TAT [8]	cell permeability compared with TAT [9]	cell permeability compared with TAT [10]	cell permeability compared with TAT [11]	cell permeability compared with TAT [12]	cell permeability, fold of TAT [5]
IPLRRLMRRARRHR [C112]	higher cell permeability	higher cell permeability	higher cell permeability	higher cell permeability	946	1.823	higher cell permeability	higher cell permeability	higher cell permeability	higher cell permeability	higher cell permeability				
ARLRVILRRRHPRR [C95]	higher cell permeability	higher cell permeability	higher cell permeability	higher cell permeability	2417	4.657	higher cell permeability	higher cell permeability		higher cell permeability	higher cell permeability	higher cell permeability	higher cell permeability	higher cell permeability	≥ 2 fold
SRRRLRRFLRRIAP [C185]	higher cell permeability	higher cell permeability	higher cell permeability	higher cell permeability	1684	3.245	higher cell permeability	higher cell permeability	higher cell permeability	higher cell permeability	higher cell permeability			higher cell permeability	
WPRRRLRLRHRARR [C113]	higher cell permeability	higher cell permeability	higher cell permeability	higher cell permeability	1278	2.462	higher cell permeability	higher cell permeability	higher cell permeability	higher cell permeability	higher cell permeability	higher cell permeability	higher cell permeability	higher cell permeability	
LVPRRLRRRARRRK [C179]	higher cell permeability	higher cell permeability	higher cell permeability	higher cell permeability	2076	4.000	higher cell permeability	higher cell permeability	higher cell permeability	higher cell permeability	higher cell permeability	higher cell permeability	higher cell permeability	higher cell permeability	
AARIRALRRRRRRP [C72]	higher cell permeability	higher cell permeability	higher cell permeability	higher cell permeability	1026	1.977	higher cell permeability	higher cell permeability	higher cell permeability	higher cell permeability	higher cell permeability	higher cell permeability	higher cell permeability	higher cell permeability	
